Results from patent US7772241B2, “Variolin derivatives and their use as antitumor agents” (Pharma Mar S.A., priority 2001, dated 2010).
Like-named read-outs stand apart in the source and are kept apart here.

Columns and labels:
K-562 = assay: Inhibition of cells growth by colorimetric (SRB) assay, K-562
In short: (§1)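 Human tumour cells seeded at 5×10^3/well in RPMI 1640 10% FBS, attached 18 h, then exposed 48 h to samples at 10 to 10^−8 μg/ml in DMSO/EtOH/PBS (0.5:0.5:99). Growth read by SRB staining after TCA fixation, OD 490 nm, triplicate wells; GI, TGI and LC derived.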

A-549 = assay: Inhibition of cells growth by colorimetric (SRB) assay, A-549
In short: as §1

SK-MEL-28 = assay: Inhibition of cells growth by colorimetric (SRB) assay, SK-MEL-28; details: for GI50 / CC50: Homo sapiens, SK-MEL-28, 48 h; for GI50: read-out: MEL-28 GI50, SRB assay, 48 hours exposure; for CC50: read-out: MEL-28 LC50, SRB assay, 48 hours exposure; for MEL-28 TGI: SRB assay, 48 hours exposure
In short: as §1

HT-29 = assay: Inhibition of cells growth by colorimetric (SRB) assay, HT-29
In short: as §1

LoVo = assay: Inhibition of cells growth by colorimetric (SRB) assay, LoVo; details: for GI50 / CC50: Homo sapiens, LoVo, 48 h; for GI50: read-out: LOVO GI50, SRB assay, 48 hours exposure; for CC50: read-out: LOVO LC50, SRB assay, 48 hours exposure; for LOVO TGI: SRB assay, 48 hours exposure
In short: as §1

LoVo-Dox = assay: Inhibition of cells growth by colorimetric (SRB) assay, LoVo-Dox; details: for GI50 / CC50: Homo sapiens, 48 h; for GI50: read-out: LOVO-DOX GI50, SRB assay, 48 hours exposure; for CC50: read-out: LOVO-DOX LC50, SRB assay, 48 hours exposure; for LOVO-DOX TGI: SRB assay, 48 hours exposure
In short: as §1

DU-145 = assay: Inhibition of cells growth by colorimetric (SRB) assay, DU-145; details: for GI50 / CC50: Homo sapiens, DU-145, 48 h; for GI50: read-out: DU-145 GI50, SRB assay, 48 hours exposure; for CC50: read-out: DU-145 LC50, SRB assay, 48 hours exposure; for DU-145 TGI: SRB assay, 48 hours exposure
In short: as §1

LNCaP = assay: Inhibition of cells growth by colorimetric (SRB) assay, LNCaP
In short: as §1

SK-BR-3 = assay: Inhibition of cells growth by colorimetric (SRB) assay, SK-BR-3; details: for GI50 / CC50: Homo sapiens, SK-BR-3, 48 h; for GI50: read-out: SK-BR-3 GI50, SRB assay, 48 hours exposure; for CC50: read-out: SK-BR-3 LC50, SRB assay, 48 hours exposure; for SK-BR-3 TGI: SRB assay, 48 hours exposure
In short: as §1

IGROV-1 = assay: Inhibition of cells growth by colorimetric (SRB) assay, IGROV-1; details: for GI50 / CC50: Homo sapiens, IGROV-1, 48 h; for GI50: read-out: IGROV GI50, SRB assay, 48 hours exposure; for CC50: read-out: IGROV LC50, SRB assay, 48 hours exposure; for IGROV TGI: SRB assay, 48 hours exposure
In short: as §1

IGROV-ET = assay: Inhibition of cells growth by colorimetric (SRB) assay, IGROV-ET; details: for GI50 / CC50: Homo sapiens, 48 h; for GI50: read-out: IGROV-ET GI50, SRB assay, 48 hours exposure; for CC50: read-out: IGROV-ET LC50, SRB assay, 48 hours exposure; for IGROV-ET TGI: SRB assay, 48 hours exposure
In short: as §1

HeLa = assay: Inhibition of cells growth by colorimetric (SRB) assay, HeLa; details: for GI50: Homo sapiens, HeLa, 48 h, read-out: HELA GI50, SRB assay, 48 hours exposure; for HELA TGI: SRB assay, 48 hours exposure
Excerpt: (§2) The finality of these assays is to interrupt the growth of a “in vitro” tumor cell culture by means a continued exhibition of the cells to the sample to be testing.
(§3) This form of the assay employs 96 well cell culture microplates of 9 mm diameter (Faircloth, 1988; Mosmann, 1983). Most of the cell lines are obtained from American Type Culture Collection (ATCC) derived from different human cancer types.
(§4) Cells are maintained in RPMI 1640 10% FBS, supplemented with 0.1 g/l penicillin and 0.1 g/l streptomycin sulphate and then incubated at 37° C., 5% CO2 and 98% humidity. For the experiments, cells were harvested from subconfluent cultures using trypsin and resuspended in fresh medium before plating.
(§5) Cells are seeded in 96 well microtiter plates, at 5×10^3 cells per well in aliquots of 195 μl medium, and they are allowed to attach to the plate surface by growing in drug free medium for 18 hours. Afterward, samples are added in aliquots of 5 μl in a ranging from 10 to 10^−8 μg/ml, dissolved in DMSO/EtOH/PBS (0.5:0.5:99). After 48 hours exposure, the antitumor effect are measured by the SRB methodology: cells are fixed by adding 50 μl of cold 50% (wt/vol) trichloroacetic acid (TCA) and incubating for 60 minutes at 4° C. Plates are washed with deionized water and dried. One hundred μl of SRB solution (0.4% wt/vol in 1% acetic acid) is added to each microtiter well and incubated for 10 minutes at room temperature. Unbound SRB is removed by washing with 1% acetic acid. Plates are air dried and bound stain is solubilized with Tris buffer. Optical densities are read on a automated spectrophotometric plate reader at a single wavelength of 490 nm.
(§6) The values for mean +/−SD of data from triplicate wells are calculated. Some parameters for cellular responses can be calculated: GI=growth inhibition, TGI=total growth inhibition (cytostatic effect) and LC=cell killing (cytotoxic effect).

HeLa-APL = assay: Inhibition of cells growth by colorimetric (SRB) assay, HeLa-APL; details: for GI50 / CC50: Homo sapiens, 48 h; for GI50: read-out: HELA-APL GI50, SRB assay, 48 hours exposure; for CC50: read-out: HELA-APL LC50, SRB assay, 48 hours exposure; for HELA-APL TGI: SRB assay, 48 hours exposure
Excerpt: as §2, §3, §4, §5, §6

PANC-1 = assay: Inhibition of cells growth by colorimetric (SRB) assay, PANC-1; details: for GI50 / CC50: Homo sapiens, PANC-1, 48 h; for GI50: read-out: PANC-1 GI50, SRB assay, 48 hours exposure; for CC50: read-out: PANC-1 LC50, SRB assay, 48 hours exposure; for PANC-1 TGI: SRB assay, 48 hours exposure
In short: as §1

[1] = Homo sapiens, A549, 48 h, read-out: A-549 GI50, SRB assay, 48 hours exposure
[2] = Homo sapiens, A549, 48 h, read-out: A-549 LC50, SRB assay, 48 hours exposure
[3] = Homo sapiens, HT-29, 48 h, read-out: HT-29 GI50, SRB assay, 48 hours exposure
[4] = Homo sapiens, HT-29, 48 h, read-out: HT-29 LC50, SRB assay, 48 hours exposure

In the case of `CSc1nccc(-c2c3ccc(C)nc3n3c(N)nccc23)n1` [Compound 43], the GI50 (K-562; Homo sapiens, K562, 48 h, read-out: K-562 GI50, SRB assay, 48 hours exposure) is reported as 5.27 µM, the CC50 (K-562; Homo sapiens, K562, 48 h, read-out: K-562 LC50, SRB assay, 48 hours exposure) is reported as 21.2 µM and the “K-562 TGI” value (K-562; SRB assay, 48 hours exposure) is reported as 1.06E−05. For the same molecule, the GI50 (A-549; [1]) was 937 nM, the CC50 (A-549; [2]) was 31.1 µM and the GI50 (A-549; Homo sapiens, A549, 48 h, read-out: GI50 A-549, SRB assay, 48 hours exposure) was 2170 nM. The CC50 (A-549; read-out: A-549 LC50, SRB assay, 48 hours exposure) was ≥ 17.3 µM, the GI50 (SK-MEL-28) was 850 nM and the CC50 (SK-MEL-28) was 15.3 µM. For the same molecule, the “MEL-28 TGI” value (SK-MEL-28) was 3.72E−06, the GI50 (HT-29; [3]) was 932 nM and the CC50 (HT-29; [4]) was 31.1 µM. The GI50 (HT-29; read-out: HT-29 GI50, SRB assay, 48 hours exposure) was 1130 nM, the CC50 (HT-29; read-out: HT-29 LC50, SRB assay, 48 hours exposure) was ≥ 31 µM and the GI50 (LoVo) was 717 nM. For the same molecule, the CC50 (LoVo) was ≥ 31 µM, the “LOVO TGI” value (LoVo) was 2.37E−06 and the GI50 (LoVo-Dox) was 1220 nM. For the same molecule, the CC50 (LoVo-Dox) was ≥ 31 µM, the “LOVO-DOX TGI” value (LoVo-Dox) was 5.24E−06 and the GI50 (DU-145) was 1680 nM. For the same molecule, the CC50 (DU-145) was 24.5 µM, the “DU-145 TGI” value (DU-145) was 6.79E−06 and the GI50 (LNCaP; Homo sapiens, LNCaP, 48 h, read-out: LN-caP GI50, SRB assay, 48 hours exposure) was 1360 nM. For the same molecule, the CC50 (LNCaP; Homo sapiens, LNCaP, 48 h, read-out: LN-caP LC50, SRB assay, 48 hours exposure) was 12.5 µM, the “LN-caP TGI” value (LNCaP; SRB assay, 48 hours exposure) was 3.94E−06 and the GI50 (SK-BR-3) was 1.24 µM. For the same molecule, the CC50 (SK-BR-3) was ≥ 31 µM, the “SK-BR-3 TGI” value (SK-BR-3) was 5.27E−06 and the GI50 (IGROV-1) was 6.64 µM. For the same molecule, the CC50 (IGROV-1) was ≥ 31 µM, the “IGROV TGI” value (IGROV-1) was 1.60E−05 and the GI50 (IGROV-ET) was 3.69 µM. The CC50 (IGROV-ET) was ≥ 31 µM, the “IGROV-ET TGI” value (IGROV-ET) was 1.87E−05 and the GI50 (HeLa) was 23.3 nM. The “HELA TGI” value (HeLa) was 2.03E−07, the GI50 (HeLa-APL) was 18.2 nM and the CC50 (HeLa-APL) was 7.88 µM. The “HELA-APL TGI” value (HeLa-APL) was 1.75E−07, the GI50 (PANC-1) was 5.71 µM and the CC50 (PANC-1) was ≥ 31 µM. The “PANC-1 TGI” value (PANC-1) was 1.65E−05.
In the case of `CSc1nccc(-c2c3c(Cl)ccnc3n3c(N)nccc23)n1.Cl` [Compound 108], the GI50 (A-549; [1]) is reported as 2020 nM, the CC50 (A-549; [2]) is reported as 26.4 µM and the “A-549 TGI” value (A-549; SRB assay, 48 hours exposure) is reported as 2.16E−05. For the same molecule, the GI50 (SK-MEL-28) was 925 nM, the CC50 (SK-MEL-28) was 26.4 µM and the “MEL-28 TGI” value (SK-MEL-28) was 2.64E−05. For the same molecule, the GI50 (HT-29; [3]) was 701 nM, the CC50 (HT-29; [4]) was 26.4 µM and the “HT-29 TGI” value (HT-29; SRB assay, 48 hours exposure) was 2.64E−05. For the same molecule, the GI50 (LoVo) was 208 nM, the CC50 (LoVo) was 4.85 µM and the “LOVO TGI” value (LoVo) was 7.57E−07. For the same molecule, the GI50 (LoVo-Dox) was 680 nM, the CC50 (LoVo-Dox) was 26.4 µM and the “LOVO-DOX TGI” value (LoVo-Dox) was 1.61E−06. The GI50 (DU-145) was 1500 nM, the CC50 (DU-145) was 26.4 µM and the “DU-145 TGI” value (DU-145) was 2.64E−05. The GI50 (SK-BR-3) was 5.62 µM, the CC50 (SK-BR-3) was 26.4 µM and the “SK-BR-3 TGI” value (SK-BR-3) was 1.60E−05. For the same molecule, the GI50 (IGROV-1) was 2.33 µM, the CC50 (IGROV-1) was 26.4 µM and the “IGROV TGI” value (IGROV-1) was 2.64E−05. For the same molecule, the GI50 (IGROV-ET) was 11.3 µM, the CC50 (IGROV-ET) was 26.4 µM and the “IGROV-ET TGI” value (IGROV-ET) was 2.64E−05. The GI50 (HeLa) was 7.51 nM, the “HELA TGI” value (HeLa) was 1.15E−07 and the GI50 (HeLa-APL) was 9.54 nM. For the same molecule, the CC50 (HeLa-APL) was 26.4 µM, the “HELA-APL TGI” value (HeLa-APL) was 2.04E−07 and the GI50 (PANC-1) was 3.37 µM. The CC50 (PANC-1) was 26.4 µM and the “PANC-1 TGI” value (PANC-1) was 2.64E−05.
